Assays:
full-length SHP2 = molecular target: T1, full-length SHP2 (Homo sapiens, UniProt Q06124); test: SHP2 enzymatic assay (fluorescence intensity kinetic assay, DiFMUP hydrolysis); type: biochemical; conditions: 1 nM His6-tagged SHP2(2-527), 1 μM activating peptide, 50 μM DiFMUP; single assay or mean of multiple assays; read-out: Biological Example 1 IC50
T1 construct: 1 nM full-length SHP2 (His6-tagged SHP2(2-527), recombinantly expressed in E. coli and purified in-house); His6; made in house; host or cells: E. coli
T1 sequence (Q06124 2-527): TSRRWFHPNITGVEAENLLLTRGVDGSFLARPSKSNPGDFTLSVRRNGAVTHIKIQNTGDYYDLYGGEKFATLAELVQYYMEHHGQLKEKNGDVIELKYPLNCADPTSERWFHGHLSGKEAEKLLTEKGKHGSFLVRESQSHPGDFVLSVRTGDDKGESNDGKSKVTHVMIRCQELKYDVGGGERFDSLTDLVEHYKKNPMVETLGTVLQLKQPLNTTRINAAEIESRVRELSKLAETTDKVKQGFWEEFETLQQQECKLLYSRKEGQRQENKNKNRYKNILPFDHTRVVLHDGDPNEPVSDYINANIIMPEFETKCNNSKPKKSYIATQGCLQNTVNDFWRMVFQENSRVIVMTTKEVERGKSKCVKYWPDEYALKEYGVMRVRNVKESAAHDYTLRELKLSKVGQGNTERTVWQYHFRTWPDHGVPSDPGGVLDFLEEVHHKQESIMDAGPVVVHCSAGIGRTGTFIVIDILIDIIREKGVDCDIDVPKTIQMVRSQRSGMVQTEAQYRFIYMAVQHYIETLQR
Procedure: A fluorescence intensity kinetic assay was configured for full-length SHP2 that monitors the amount of 6,8-difluoro-7-hydroxy-4-methylcoumarin (“DiFMU”) formed upon hydrolysis of 6,8-difluoro-4-methylumbelliferyl phosphate (“DiFMUP”) by SHP2. […] Low control wells lacked enzyme. The assays were initiated by the addition of a mixture of SHP2 and the activating peptide, and following a 15 second mix on an orbital shaker, were read in kinetic mode for 15 minutes (30 seconds/cycle) at ambient temperature on a PerkinElmer EnVision microplate reader (kEx=355 nm, kEm=460 nm). Initial velocities (slopes of the tangents at t=0) were estimated from exponential fits to the slightly nonlinear progress curves and then were converted to percent of control (“POC”) using the following equation:
[formula] • Where: xmax Average Uninhibited Controls • Xmin Average Background A 4-parameter logistic model was the fit to the POC data for each compound. From that fit, the IC50 was estimated and is defined as the concentration of compound at which the curve crosses 50 POC.

[1] = system: ERK1/2 (Thr202/Tyr204) phosphorylation in KYSE520 cells; test: Cellular Phospho-p44/42 MAPK (Erk1/2) (Thr202/Tyr204) assay, In-Cell Western; type: cell-based; conditions: Homo sapiens, KYSE-520; KYSE520 cells, 1 hour incubation, pERK signal normalized to GAPDH; single assay or mean of multiple assays; read-out: Biological Example 2 IC50
Procedure: Inhibition of ERK1/2 (Thr202/Tyr204) phosphorylation was determined by the following cellular assay, which comprises incubating cells with a compound for 1 hour and quantifying pERK signal by In-Cell Western on fixed cells and normalizing to GAPDH signal. KYSE520 cells were obtained from DSMZ and grown in RPMI supplemented with 10% fetal bovine serum, penicillin/streptomycin, 2 mM L-alanyl-L-glutamine dipeptide in 0.85% NaCl (Glutamax™), non-essential amino acids, and sodium pyruvate. Cells were plated in 96-well plates at 30,000 cells/well and allowed to attach overnight at 37° C./5% CO2. Cells were treated with compounds prepared as a 10-point, 1:3 dilution series (range: 20 μM-1 nM), with a final DMSO concentration of 0.5%. After 1 hour incubation, cells were fixed in 3.7% formaldehyde in Dulbecco's phosphate-buffered saline (“dPBS”) at room temperature for 20 minutes. Cells were then washed with dPBS and permeabilized in 100% MeOH at room temperature for 10 minutes. Following permeabilization, cells were washed in dPBS and incubated in LI-COR Blocking Buffer (LI-COR Biosciences, Cat #927-40000) for 1 hour or longer. Plates were then incubated with an antibody specific for the MEK-dependent ERK1/2 phosphorylation sites, threonine 202 and tyrosine 204 (Cell Signaling Technologies; Cat #9101), downstream of SHP2 in the MAP kinase signal transduction pathway, as well as GAPDH (Millipore; Cat #MAB374). pErk1/2 (Thr202/Tyr204) antibody was diluted in LI-COR blocking buffer containing 0.05% polysorbate-20 (Tween-20) at 1:250; GAPDH was diluted at 1:2,500. The plates were incubated overnight at 4° C. After washing with PBS/0.05% Tween-20, the cells were incubated with fluorescently-labeled secondary antibodies (Anti-rabbit-Alexa Flour680, Invitrogen Cat #A21109; Anti-mouse-IRDye800CW, Li-cor Bioscieces Cat #926-32210, both at 1:1000 dilution) for 1 hour. Cells were then washed, as above, and analyzed for fluorescence at both 680 nm and 800 nm wavelengths using the Aerius Infrared Imaging System (LI-COR Biosciences, Model 9250). Phosphorylated Erk1/2 ([…]) signal was normalized to GAPDH signal for each well. IC50 values were calculated from the normalized values using a 4-parameter fit in BioAssay software. The reported IC50 in Table 2 may be from a single assay or the mean of multiple assays.

Structure (SMILES) | IC50 (full-length SHP2) | IC50 [1]
N[C@@H]1c2ccccc2CC12CCN(c1ncc(-c3ccccc3)nn1)CC2 [Example 79, (S)-1′-(6-phenyl-1,2,4-triazin-3-yl)-1,3-dihydrospiro[indene-2,4′-piperidin]-1-amine] | 84 nM | 697 nM
Nc1nccc(Sc2cnc(N3CCC4(CC3)Cc3ccccc3[C@H]4N)nn2)c1C1CC1 [Example 19, (S)-1′-(6-((2-amino-3-cyclopropylpyridin-4-yl)thio)-1,2,4-triazin-3-yl)-1,3-dihydrospiro[indene-2,4′-piperidin]-1-amine] | 44 nM | 208 nM
Nc1nccc(Sc2cnc(N3CCC4(CC3)Cc3ccccc3[C@H]4N)nn2)c1Br [Example 52, (S)-1′-(6-((2-amino-3-bromopyridin-4-yl)thio)-1,2,4-triazin-3-yl)-1,3-dihydrospiro[indene-2,4′-piperidin]-1-amine] | 27 nM | 2 nM
COc1ccc2c(c1)[C@@H](N)C1(CCN(c3ncc(Sc4ccnc(N)c4Cl)nn3)CC1)C2 [Example 84, (S)-1′-(6-((2-amino-3-chloropyridin-4-yl)thio)-1,2,4-triazin-3-yl)-6-methoxy-1,3-dihydrospiro[indene-2,4′-piperidin]-1-amine] | 24 nM | 2 nM
N[C@@H]1c2ccccc2CC12CCN(c1ncc(Sc3ccnc4c3C(F)(F)C(=O)N4)nn1)CC2 [Example 25, (S)-4-((3-(1-amino-1,3-dihydrospiro[indene-2,4′-piperidin]-1′-yl)-1,2,4-triazin-6-yl)thio)-3,3-difluoro-1,3-dihydro-2H-pyrrolo[2,3-b]pyridin-2-one] | 26 nM | 2 nM
Nc1nccc(Sc2cnc(N3CCC4(CC3)Cc3c(Cl)cccc3[C@@H]4N)nn2)c1Cl [Example 82, (R)-1′-(6-((2-amino-3-chloropyridin-4-yl)thio)-1,2,4-triazin-3-yl)-4-chloro-1,3-dihydrospiro[indene-2,4′-piperidin]-1-amine] | 205 nM | 541 nM
C[C@@H]1OCC2(CCN(c3ncc(Sc4c(Cl)cnc5[nH]ccc45)nn3)CC2)[C@@H]1N [Example 9, (3S,4S)-8-(6-((5-chloro-1H-pyrrolo[2,3-b]pyridin-4-yl)thio)-1,2,4-triazin-3-yl)-3-methyl-2-oxa-8-azaspiro[4.5]decan-4-amine] | 358 nM | 699 nM
N[C@@H]1c2ccccc2CC12CCN(c1ncc(Sc3c[nH]c4ccccc34)nn1)CC2 [Example 69, (S)-1′-(6-((1H-indol-3-yl)thio)-1,2,4-triazin-3-yl)-1,3-dihydrospiro[indene-2,4′-piperidin]-1-amine] | 19 nM | 170 nM
COc1cc2c(cc1Cl)[C@H](N)C1(CCN(c3ncc(Sc4ccnc(N)c4Cl)nn3)CC1)C2 [Example 63, (R)-1′-(6-((2-amino-3-chloropyridin-4-yl)thio)-1,2,4-triazin-3-yl)-6-chloro-5-methoxy-1,3-dihydrospiro[indene-2,4′-piperidin]-1-amine] | 254 nM | 665 nM
N[C@@H]1c2ccccc2CC12CCN(c1ncc(Sc3ccnc4[nH]ccc34)nn1)CC2 [Example 30, (S)-1′-(6-((1H-pyrrolo[2,3-b]pyridin-4-yl)thio)-1,2,4-triazin-3-yl)-1,3-dihydrospiro[indene-2,4′-piperidin]-1-amine] | 22 nM | 2 nM
Cc1nc2c(s1)[C@H](N)C1(CCN(c3ncc(Sc4ccnc(N)c4Cl)nn3)CC1)C2 [Example 57, (R)-1′-(6-((2-amino-3-chloropyridin-4-yl)thio)-1,2,4-triazin-3-yl)-2-methyl-4,6-dihydrospiro[cyclopenta[d]thiazole-5,4′-piperidin]-6-amine] | 643 nM | 139 nM
Nc1nccc(Sc2cnc(N3CCC4(CC3)Cc3cc(Cl)ccc3[C@H]4N)nn2)c1Cl [Example 17, (S)-1′-(6-((2-amino-3-chloropyridin-4-yl)thio)-1,2,4-triazin-3-yl)-5-chloro-1,3-dihydrospiro[indene-2,4′-piperidin]-1-amine] | 25 nM | 9 nM
Nc1ccc(Oc2cnc(N3CCC4(CC3)Cc3ccccc3[C@H]4N)nn2)cn1 [Example 22, (S)-1′-(6-((6-aminopyridin-3-yl)oxy)-1,2,4-triazin-3-yl)-1,3-dihydrospiro[indene-2,4′-piperidin]-1-amine] | 32 nM | 17 nM

More lines, in order of falling IC50 (full-length SHP2), values ahead:

IC50 (full-length SHP2) | Structure (SMILES) | IC50 [1]
69 nM | C[C@@H]1OCC2(CCN(c3ncc(Sc4ccnc5[nH]ccc45)nn3)CC2)[C@@H]1N [Example 8, (3S,4S)-8-(6-((1H-pyrrolo[2,3-6]pyridin-4-yl)thio)-1,2,4-triazin-3-yl)-3-methyl-2-oxa-8-azaspiro[4.5]decan-4-amine] | 48 nM
64 nM | Nc1nccc(Sc2cnc(N3CCC4(CC3)Cc3ncc(Cl)cc3[C@H]4N)nn2)c1Cl [Example 65, (S)-1′-(6-((2-amino-3-chloropyridin-4-yl)thio)-1,2,4-triazin-3-yl)-3-chloro-5,7-dihydrospiro[cyclopenta[b]pyridine-6,4′-piperidin]-5-amine] | 81 nM
47 nM | Nc1nccc(Sc2cnc(N3CCC4(CC3)Cc3ncccc3[C@H]4N)nn2)c1Cl [Example 24, (S)-1′-(6-((2-amino-3-chloropyridin-4-yl)thio)-1,2,4-triazin-3-yl)-5,7-dihydrospiro[cyclopenta[b]pyridine-6,4′-piperidin]-5-amine] | 5 nM
32 nM | Cn1ccc2c(Sc3cnc(N4CCC5(CC4)Cc4ccccc4[C@H]5N)nn3)ccnc21 [Example 73, (S)-1′-(6-((1-methyl-1H-pyrrolo[2,3-b]pyridin-4-yl)thio)-1,2,4-triazin-3-yl)-1,3-dihydrospiro[indene-2,4′-piperidin]-1-amine] | 6 nM
20 nM | N[C@@H]1c2ccccc2CC12CCN(c1ncc(Sc3n[nH]c4ccccc34)nn1)CC2 [Example 67, (S)-1′-(6-((1H-indazol-3-yl)thio)-1,2,4-triazin-3-yl)-1,3-dihydrospiro[indene-2,4′-piperidin]-1-amine] | 51 nM
17 nM | N[C@@H]1c2ccccc2CC12CCN(c1ncc(Sc3n[nH]c4ncccc34)nn1)CC2 [Example 27, (S)-1′-(6-((1H-pyrazolo[3,4-b]pyridin-3-yl)thio)-1,2,4-triazin-3-yl)-1,3-dihydrospiro[indene-2,4′-piperidin]-1-amine] | 11 nM
5 nM | N[C@@H]1c2ccccc2CC12CCN(c1ncc(Sc3ccccc3)nn1)CC2 [Example 32, (S)-1′-(6-(phenylthio)-1,2,4-triazin-3-yl)-1,3-dihydrospiro[indene-2,4′-piperidin]-1-amine] | 14 nM

Reference: patent US11634417B2 (Array BioPharma Inc., priority 2019, dated 2023)
